Here are results for two compounds from paper PMC4773869, “Influence of plasma-activated compounds on melanogenesis and tyrosinase activity” (Scientific Reports, 2016).

Assay [1] concerns B16F10 cells. The experiment in a line: Intracellular melanin content measurement. Format: cell-based, murine. The following applies: for activity at 35 µg/mL: Mus musculus, B16-F10, 35 μg/ml, read-out: melanin content, % of control (100%); for melanin, % of control (normalized to 100%): as-synthesized ED, no α-MSH, concentration not given. The protocol:
Melanoma (1.5 × 10^5) cells were seeded in cell culture plates and allowed to attach for 24 hr. Then each eugenol derivative was added and tested separately for melanin activation after 24 hr of incubation. After incubation, cells were detached using trypsin/EDTA and centrifuged at 1000 rpm for 5 min to collect the cell pellets. The cell pellets were solubilized in 1N NaOH at 60 °C for 1 hr. The melanin content was measured spectrophotometrically at 405 nm wavelength using a microplate reader (BioTek, synergy HT)[56]. […] Plasma-treated and non-plasma-treated ED (4b and 6a) were added to the cells, pre-incubated with or without α-MSH (100 nM) for a further 24 hr and melanin content was assayed as described above. Kojic acid can inhibit and α-MSH can stimulate the melanin in the cells, therefore we used them as negative and positive controls.

The subject of assay [2] is tyrosinase expression in B16F10 cells. Description: Western blot, tyrosinase expression. Format: cell-based, murine. The following applies: 24 hr. The method, then:
Melanoma cells were incubated with as-synthesized and plasma-treated 4b and 6a test compounds for 24 hr. Following incubation, treated and untreated cells were lysed in RIPA buffer (Cell Signaling Technology, USA), whole cell protein was extracted and subjected to electrophoresis in 12% SDS-PAGE, and blotted onto nitrocellulose membranes. The membrane was probed with the antibodies raised against MITF, tyrosinase and TRP1 (Abcam, USA). The bands were detected using Super Signal West Pico Chemiluminescent Substrate (Pierce, Rockford, IL, USA) and images were taken using a Vilver imaging system (Vilver, Upland, CA, USA).
(Immunoblotting shows a protein as a band on a membrane.)

Assay [3] has as its system intracellular ROS in B16F10 cells. The experiment in a line: Intracellular ROS measurement (carboxy-H2DCFDA). Format: cell-based, murine. The following applies: for intracellular ROS level, PAED compared to ED: plasma-treated compound versus as-synthesized compound. The protocol:
Intracellular reactive oxygen species (ROS) were quantified using carboxy-H2DCFDA (5-(and 6)-carboxy-20,70-dichlorodihydrofluorescein diacetate), by monitoring the fluorescence intensity.
Briefly, various concentrations of as-synthesized 4b and 6a or plasma-treated 4b and 6a were incubated with cells. After 24 hr, the cells were centrifuged for 5 min at 1000 rpm and the collected cell pellet was washed with PBS and labeled with carboxy-H2DCFDA dye following 30 min of incubation at 37 °C. The samples were centrifuged again and each pellet was mixed with 500 μl PBS. The 200 μl samples were then transferred in 96-well plates (black plate, clear bottom, corning incorporated USA) and fluorescence was measured at excitation/emission: 485/528 nm using a microplate reader.

The target of assay [4] is T1, mushroom tyrosinase (Agaricus bisporus, UniProt C7FF04). The experiment in a line: Kinetic analysis of the inhibition of mushroom tyrosinase (Lineweaver-Burk and Dixon plots). Format: biochemical. The following applies: Lineweaver-Burk plot; substrate L-DOPA; as-synthesized compound. The method, then: Latter, we studied the kinetic behavior of mushroom tyrosinase during the oxidation of L-DOPA with the selective ED compounds (4b and 6a). In the present investigation, the oxidation reaction of L-DOPA by mushroom tyrosinase follows the Michaelis-Menten kinetics. The inhibitory mechanism of both of the compounds was determined by using Lineweaver-Burk plot (double reciprocal plot) as well as a Dixon plot at various concentrations of substrate L-DOPA (0.0, 0.125, 0.25, 0.5, 1.0 and 2.0 mM), as shown in Fig. 4. The double-reciprocal plot of enzyme activity in the presence of compound 4b with concentration 0.0, 18.0, 36.5, 73, 146 μM and compound 6a with concentration 0.0, 6.7, 13.5, 27 μM are shown in Fig. 4(a,b), respectively. […] The Dixon plot was determined by 1/V versus inhibitor concentrations [I] at various concentrations of substrate in mM. […] Further, to determine the action of these eugenol derivatives on the structure of tyrosinase enzyme, we performed CD analysis and molecular docking studies. A series of experiments were performed to determine the inhibition kinetics using the following method. […] The formation of DOPAchrome was continuously monitored at 475 nm for 5 min at a 30 sec intervals in the microplate reader after the addition of the enzyme.
Target sequence in this assay (C7FF04 2-392): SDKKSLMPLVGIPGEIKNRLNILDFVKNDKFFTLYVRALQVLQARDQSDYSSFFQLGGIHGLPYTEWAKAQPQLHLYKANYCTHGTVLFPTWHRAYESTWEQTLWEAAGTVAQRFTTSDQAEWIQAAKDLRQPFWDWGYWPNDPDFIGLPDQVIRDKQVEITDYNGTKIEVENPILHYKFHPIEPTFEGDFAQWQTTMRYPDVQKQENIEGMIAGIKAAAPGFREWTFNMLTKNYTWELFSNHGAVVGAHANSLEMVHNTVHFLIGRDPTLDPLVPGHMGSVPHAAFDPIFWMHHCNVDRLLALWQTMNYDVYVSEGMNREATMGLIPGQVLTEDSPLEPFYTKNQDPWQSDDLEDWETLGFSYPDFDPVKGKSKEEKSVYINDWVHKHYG

Assay [5] concerns the target T1, mushroom tyrosinase. The experiment in a line: Mushroom tyrosinase inhibition assay (L-DOPA, dopachrome at 492 nm). Format: biochemical. Details: purchased Sigma Chemical Co. USA. The following applies: mean ± SD, read-out: Tyrosinase inhibitory activity IC50 (converted). The protocol: To determine the action of ED and PAED, we checked the mushroom tyrosinase inhibitory activity in a cell-free environment. […] Moreover, after plasma treatment for different time intervals, we observed that inhibition activity of 4a, 4b, 4d and 6a was improved more as compared to without treatment. […] However, we observed the highest relative improvement in IC50 value of compound 4b among all ED compounds at 10 min plasma treatment. […] Therefore, we used the 4b and 6a compounds for further investigations, based on the decrease in IC50 value to a global minimum of the experiment after plasma treatment.
The mushroom tyrosinase was used for in vitro bioassays as described previously with some modifications. Briefly, 140 μl of phosphate buffer (20 mM, pH 6.8), 20 μl of mushroom tyrosinase (30 U/ml), and 20 μl of the inhibitor solution were placed in the wells of a 96-well plate. After pre-incubation for 10 min at room temperature, 20 μl of L-DOPA (3,4-dihydroxyphenylalanine) (0.85 mM) was added and the plate was further incubated at 25 °C for 20 min. Subsequently the absorbance of dopachrome was measured at 492 nm using a micro plate reader (OPTI Max, Tunable). Kojic acid was used as a reference inhibitor. The extent of inhibition by the test compounds was expressed as the […] necessary to achieve 50% inhibition (IC50). Each concentration was analyzed in three independent experiments run in triplicate. The IC50 values were determined by the data analysis and graphing software, Origin.
Target sequence in this assay (C7FF04 1-392): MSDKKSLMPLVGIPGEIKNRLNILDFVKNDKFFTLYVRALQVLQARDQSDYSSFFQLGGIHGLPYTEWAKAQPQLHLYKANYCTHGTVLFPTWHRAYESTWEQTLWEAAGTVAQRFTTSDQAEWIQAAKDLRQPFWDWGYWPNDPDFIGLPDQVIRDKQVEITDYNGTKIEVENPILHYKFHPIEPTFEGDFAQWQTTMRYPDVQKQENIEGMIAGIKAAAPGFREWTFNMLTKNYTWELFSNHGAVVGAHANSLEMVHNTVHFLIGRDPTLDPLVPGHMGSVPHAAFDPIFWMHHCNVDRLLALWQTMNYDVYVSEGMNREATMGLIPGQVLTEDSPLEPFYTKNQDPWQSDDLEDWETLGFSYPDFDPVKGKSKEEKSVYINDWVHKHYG

For assay [6], the system named is cAMP in B16F10 cells. Description: Intracellular cAMP measurement (cAMP kit). The following applies: for cAMP level: PAED (plasma-treated compound), compared with as-synthesized compound and control; for cAMP level compared to the control: as-synthesized compound, control: media only with cells. The format is cell-based, murine. The method, then:
For cAMP measurement, the 4b and 6a were treated with plasma for 3, 5, and 10 min, and then added to the cells, pre-incubated with or without α-MSH (100 nM) for 24 hr. The cells were trypsinised and centrifuged to obtain the cell pellets. The cell pellet was lysed and the cAMP level was measured using a cAMP Kit (Abcam, USA) according to the manufacturer’s instructions.

Where [7] appears, read: Con: as-synthesized, before plasma treatment, cell-free.
Setting [8] is: compound after 3 min N2 APPJ plasma treatment.
Where [9] appears, read: compound after 5 min N2 APPJ plasma treatment.
The mark [10] stands for this setting: compound after 10 min N2 APPJ plasma treatment.

Each structure is given as a SMILES string. Read-outs that look alike come from different tables or passages of the source.

By IC50 is commonly meant the concentration that inhibits the measured activity by half. As to `C=CCc1ccc(OC(=O)COC(=O)c2ccc(O)cc2)c(OC)c1` [4b, 2-[2-methoxy-4-(prop-2-en-1-yl)phenoxy]-2-oxoethyl 4-hydroxybenzoate], the activity at 35 µg/mL in assay [1] (after plasma treatment for 10 min, absence of α-MSH) turned out to be 143%; in assay [1] (as-synthesized, absence of α-MSH), 125%; in assay [1] (as-synthesized, presence of α-MSH), 156%. Moreover, in assay [1], the “melanin, % of control (normalized to 100%)” value turned out to be 126%. The “cellular tyrosinase expression versus control” value in assay [2] (ED (as-synthesized)) and in assay [2] (PAED (plasma-treated)) was “no change” throughout. In assay [3] (independent of plasma treatment), the “intracellular ROS, comparison between compounds” value is “higher intracellular ROS than 6a”. Besides, the “intracellular ROS level, PAED compared to ED” value in assay [3] is recorded as “higher intracellular ROS levels”. Moreover, the type of inhibition result in assay [4] is listed as “competitive inhibitor”. Besides, the IC50 in assay [5] (setting [7]) was 84.7 µM; in assay [5] (setting [8]), 70.1 µM; in assay [5] (setting [9]) it was 67.2 µM; in assay [5] (setting [10]), 40.9 µM. Also, in assay [6], the cAMP level entry is recorded as “enhanced even further”. Moreover, the “cAMP level compared to the control” value in assay [6] was “increased”.
For `C=CCc1ccc(OC(=O)COC(=O)/C=C/c2ccc(O)cc2)c(OC)c1` [6a, 2-[2-methoxy-4-(prop-2-en-1-yl)phenoxy]-2-oxoethyl(2E)-3-(4-hydroxyphenyl)prop-2-enoate], the “melanin, % of control (normalized to 100%)” value in assay [1] was 125%. Further, the “cellular tyrosinase expression versus control” value in assay [2] (ED (as-synthesized)) and in assay [2] (PAED (plasma-treated)) was “no change” each time. Besides, in assay [3], the “intracellular ROS level, PAED compared to ED” value is listed as “higher intracellular ROS levels”. For the same compound, the type of inhibition entry in assay [4] is listed as “uncompetitive inhibitor”. Moreover, the IC50 in assay [5] (setting [7]) is 13.6 µM; in assay [5] (setting [8]) it was 13.6 µM; in assay [5] (setting [9]), 13.6 µM; in assay [5] (setting [10]), 8.14 µM. The cAMP level result in assay [6] is listed as “enhanced even further”. In assay [6], the “cAMP level compared to the control” value is on record as “increased”.
